Results: patent EP3771715A1, “CRYSTALLINE FORMS OF BARICITINIB” (Zaklady Farmaceutyczne "Polpharma" S.A., priority 2019, dated 2021)
Each block holds one molecule with its values, some of them ahead of it.

How the values were obtained:
Assay type in all cases: physicochemical
[1] = Chemical stability under accelerated ICH storage conditions (HPLC); details: for Impurities (HPLC % a/a) RRT 1.40 / Impurities (HPLC % a/a) RRT 1.70 / Impurities (HPLC % a/a) RRT 2.20 / Impurities (HPLC % a/a) RRT 1.30 / Impurities (HPLC % a/a) RRT 1.41: 40°C, 75 ± 5% RH
Method: Purity and assay analysis was carried out using High Performance Liquid Chromatograph equipped with PDA detector. The analysis was conducted using Octadecyl silane (ODA or C18) chemically bonded to porous silica column, at a temperature of 40°C. The mobile phases was acetonitrile and 0.1% (v/v) ortho-phosphoric acid in water used in gradient.
Chemical stability study of the new crystalline forms of baricitinib i.e. PPH form I and PPH form II was performed under accelerated ICH storage conditions (40°C, 75±5% relative humidity). Samples were taken periodically (0 (start), after 1, 2, and 4 weeks) and analyzed by HPLC. Table 4 : HPLC purity of PPH form I of baricitinib

[2] = Crystalline stability against humidity (XRPD); details: no conversion into another crystalline form by XRPD
Method: Powder X-ray diffraction was performed with a Rigaku MiniFlex 600 diffractometer with Bragg-Brentano geometry CuKa radiation and D/teX Ultra Detector. The powder X-ray diffraction patterns were recorded at a tube voltage of 40kV and a tube current of 15 mA, applying a step size of 0.01° and speed 6.0°/min with the angular range 3-36° at ambient conditions.
A test for crystalline stability against humidity can be performed as follows: The sample is exposed to a relative humidity of 75% (±5%) at 40°C (±2°C) for 4 weeks. The expression "crystalline stability" means that no conversion into another crystalline form occurs, as determined by XRPD.
The equilibrium relative humidity of a sample is measured by determining the relative humidity in % in the air above a test sample, after establishment of a humidity equilibrium in a closed/open system at a constant temperature.
A test for crystalline stability against humidity has been performed as follows: The sample is exposed to a relative humidity of 75% (±5%) at 40°C(±2°C) for 4 weeks. The expression "crystalline stability" means that no conversion into another crystalline form occurs, as determined by XRPD.

[3] = Hygroscopicity (statement, no method described)

- Impurities (HPLC % a/a) RRT 1.40 ([1]; week 0): 0.03 % a/a
- Impurities (HPLC % a/a) RRT 1.70 ([1]; week 0): 0.17 % a/a
- Impurities (HPLC % a/a) RRT 2.20 ([1]; week 0): 0.15 % a/a
- Impurities (HPLC % a/a) RRT 1.40 ([1]; week 1): 0.03 % a/a
- Impurities (HPLC % a/a) RRT 1.70 ([1]; week 1): 0.17 % a/a
- Impurities (HPLC % a/a) RRT 2.20 ([1]; week 1): 0.15 % a/a
- Impurities (HPLC % a/a) RRT 1.40 ([1]; week 2): 0.03 % a/a
- Impurities (HPLC % a/a) RRT 1.70 ([1]; week 2): 0.17 % a/a
- Impurities (HPLC % a/a) RRT 2.20 ([1]; week 2): 0.15 % a/a
- Impurities (HPLC % a/a) RRT 1.40 ([1]; week 4): 0.03 % a/a
- Impurities (HPLC % a/a) RRT 1.70 ([1]; week 4): 0.17 % a/a
- Impurities (HPLC % a/a) RRT 2.20 ([1]; week 4): 0.15 % a/a
- Crystalline stability study 40°C, 75 ± 5% RH After 4 weeks ([2]; listed as PPH form II (Example 4)): Stable
- Crystalline stability study 40°C, 75 ± 5% RH After 4 weeks ([2]; listed as PPH form II of baricitinib): stable
Structure (SMILES): CCS(=O)(=O)N1CC(CC#N)(n2cc(-c3ncnc4[nH]ccc34)cn2)C1 [PPH form II, {1-(Ethylsulfonyl)-3-[4-(7H-pyrrolo[2,3-d]pyrimidin-4-yl)-1H-pyrazol-1-yl]-3-azetidinyl}acetonitrile]

- Hygroscopicity [3]: substantially non-hygroscopic
- Impurities (HPLC % a/a) RRT 1.30 ([1]; week 0): 0.01 % a/a
- Impurities (HPLC % a/a) RRT 1.41 ([1]; week 0): 0.03 % a/a
- Impurities (HPLC % a/a) RRT 1.30 ([1]; week 1): 0.01 % a/a
- Impurities (HPLC % a/a) RRT 1.41 ([1]; week 1): 0.03 % a/a
- Impurities (HPLC % a/a) RRT 1.30 ([1]; week 2): 0.01 % a/a
- Impurities (HPLC % a/a) RRT 1.41 ([1]; week 2): 0.03 % a/a
- Impurities (HPLC % a/a) RRT 1.30 ([1]; week 4): 0.01 % a/a
- Impurities (HPLC % a/a) RRT 1.41 ([1]; week 4): 0.03 % a/a
- Chemical stability (HPLC results) ([1]; during 0, 1, 2 and 4 weeks at 40°C, 75 ± 5% relative humidity): stable
- Crystalline stability study 40°C, 75 ± 5% RH After 1 week ([2]; after 1 week): Stable
- Crystalline stability study 40°C, 75 ± 5% RH After 4 weeks [2]: Stable
Structure (SMILES): CCS(=O)(=O)N1CC(CC#N)(n2cc(-c3ncnc4[nH]ccc34)cn2)C1 [PPH form I, {1-(Ethylsulfonyl)-3-[4-(7H-pyrrolo[2,3-d]pyrimidin-4-yl)-1H-pyrazol-1-yl]-3-azetidinyl}acetonitrile]
